Measurements reported in US12692261B2, “Substituted heterocyclic compounds and therapeutic uses thereof” (Bayer Aktiengesellschaft, priority 2020, dated 2026).

How the values were obtained:
[1] = target: T1, full-length human CSNK1A1 (Homo sapiens, UniProt P48729); assay: CSNK1A1 High ATP Assay (ADP-Glo, 1 mM ATP); format: biochemical; details: Table 3, read-out: CSNK1A1 high ATP assay IC50 [mol/l] (median);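 also: 30 min kinase reaction at 22 °C with 100 µM peptide substrate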
T1 construct: N-terminal Glutathion-S-Transferase (GST) and full-length human CSNK1A1; purchased Life Technologies PV4174; host or cells: baculovirus infected insect cells
T1 sequence (P48729 whole entry): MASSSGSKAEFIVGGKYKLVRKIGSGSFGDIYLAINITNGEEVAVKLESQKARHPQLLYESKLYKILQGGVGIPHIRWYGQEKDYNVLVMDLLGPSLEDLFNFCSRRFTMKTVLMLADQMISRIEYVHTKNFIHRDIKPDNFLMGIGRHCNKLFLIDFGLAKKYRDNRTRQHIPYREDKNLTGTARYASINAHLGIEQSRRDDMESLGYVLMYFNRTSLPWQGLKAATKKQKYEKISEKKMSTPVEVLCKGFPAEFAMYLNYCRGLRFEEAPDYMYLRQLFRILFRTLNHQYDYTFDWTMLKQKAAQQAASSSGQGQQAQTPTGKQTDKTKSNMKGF
Protocol: CSNK1A1-inhibitory activity of compounds of the present invention in presence of 1 mM adenosine-tri-phosphate (ATP) was quantified employing the CSNK1A1-high-ATP-assay as described in the following paragraphs. In essence, the enzyme activity is measured by quantification of the adenosine-di-phosphate (ADP), which is generated as a co-product of the enzyme reaction, via the “ADP-Glo™ Kinase Assay” kit from the company Promega. This detection system works as follows: In a first step the ATP not consumed in the kinase reaction is quantitatively converted to cAMP employing an adenylate cyclase (“ADP-Glo-reagent”), then the adenylate cyclase is stopped and the ADP generated in the kinase reaction converted to ATP which generates in a luciferase-based reaction a glow-luminescence signal (“Kinase Detection Reagent”).
(§1) Recombinant fusion protein of N-terminal Glutathion-S-Transferase (GST) and full-length human CSNK1A1, expressed by baculovirus infected insect cells and purified via Glutathion affinity chromatography, was purchased from Life Technologies (product no. PV4174) and used as enzyme. As substrate for the kinase reaction the biotinylated peptide biotin-Ahx-KRRRAL-pS-VASLPGL (C-terminus in amide form) was used which can be purchased e.g. from the company Biosyntan (Berlin-Buch, Germany).
For the assay 50 nl of a 100 fold concentrated solution of the test compound in DMSO was pipetted into a white low volume 384-well microtiter plate (Greiner Bio-One, Frickenhausen, Germany), 2 μL of a solution of CSNK1A1 in aqueous assay buffer [50 mM HEPES pH 7.5, 10% (v/v) glycerol, 10 mM MgCl2, 50 mM NaCl, 1 mM dithiothreitol, 0.01% (w/v) bovine serum albumin, 0.01% (v/v) Triton X-100] were added and the mixture was incubated for 15 min at 22° C. to allow pre-binding of the test compounds to the enzyme before the start of the kinase reaction. […] The concentration of CSNK1A1 was adjusted depending of the activity of the enzyme lot and was chosen appropriate to have the assay in the linear range, a typical concentration is about 0.4 ng/μL. The reaction was stopped by the addition of 2.5 μL of “ADP-Glo-reagent” (1:1.5 fold diluted with water) and the resulting mixture was incubated at 22° C. for 1 h to convert the ATP not consumed in the kinase reaction completely […]. Subsequently 2.5 μL of the “kinase detection reagent” (1.2 fold more concentrated than recommended by the producer) were added, the resulting mixture was incubated at 22° C. for 1 h and then the luminescence measured with a suitable measurement instrument (e.g. Viewlux™ from Perkin-Elmer). The amount of emitted light was taken as a measure for the amount of ADP generated and thereby for the activity of the CSNK1A1.

full-length human CSNK1D = target: T2, full-length human CSNK1D (Homo sapiens, UniProt P48730); assay: CSNK1D Assay (ADP-Glo, 1 μM ATP); format: biochemical; details: Table 3, read-out: CSNK1D IC50 [mol/l] (median)
T2 construct: N-terminal Glutathion-S-Transferase (GST) and full-length human CSNK1D; purchased Life Technologies PV3665; host or cells: baculovirus infected insect cells
T2 sequence (P48730 whole entry): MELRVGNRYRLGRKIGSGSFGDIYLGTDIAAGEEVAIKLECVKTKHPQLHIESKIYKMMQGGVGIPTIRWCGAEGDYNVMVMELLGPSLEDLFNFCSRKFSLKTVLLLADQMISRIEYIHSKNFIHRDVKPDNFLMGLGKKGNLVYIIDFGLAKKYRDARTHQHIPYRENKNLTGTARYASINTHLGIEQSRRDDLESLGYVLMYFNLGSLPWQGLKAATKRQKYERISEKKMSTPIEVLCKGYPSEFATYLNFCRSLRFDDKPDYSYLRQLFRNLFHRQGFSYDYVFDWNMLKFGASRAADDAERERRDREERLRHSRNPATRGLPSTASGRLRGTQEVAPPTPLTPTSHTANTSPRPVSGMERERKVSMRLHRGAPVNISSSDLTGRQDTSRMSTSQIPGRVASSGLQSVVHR
Protocol: CSNK1D-inhibitory activity of compounds of the present invention in presence of 1 μM adenosine-tri-phosphate (ATP) was quantified employing the CSNK1 D assay as described in the following paragraphs. In essence, the enzyme activity is measured by quantification of the adenosine-di-phosphate (ADP), which is generated as a co-product of the enzyme reaction, via the “ADP-Glo™ Kinase Assay” kit from the company Promega. This detection system works as follows: In a first step the ATP not consumed in the kinase reaction is quantitatively converted to cAMP employing an adenylate cyclase (“ADP-Glo-reagent”), then the adenylate cyclase is stopped and the ADP generated in the kinase reaction converted to ATP which generates in a luciferase-based reaction a glow-luminescence signal (“Kinase Detection Reagent”).
as §1, with “CSNK1D,” for “CSNK1A1,”, “PV3665)” for “PV4174)”, “Btn-Ahx-[…]” for “biotin-Ahx-KRRRAL-pS-VASLPGL”
For the assay 50 nl of a 100 fold concentrated solution of the test compound in DMSO was pipetted into a white 1536-well microtiter plate (Greiner Bio-One, Frickenhausen, Germany), 2 μL of a solution of CSNK1D in aqueous assay buffer [50 mM HEPES pH 7.5, 10% (v/v) glycerol, 10 mM MgCl2, 50 mM NaCl, 1 mM dithiothreitol, 0.01% (w/v) bovine serum albumin, 0.01% (v/v) Triton X-100] were added and the mixture was incubated for 15 min at 22° C. to allow pre-binding of the test compounds to the enzyme before the start of the kinase reaction. […] The concentration of CSNK1D was adjusted depending of the activity of the enzyme lot and was chosen appropriate to have the assay in the linear range, a typical concentration is about 0.5 ng/μL. The reaction was stopped by the addition of 2.5 μL of “ADP-Glo-reagent” (1:1.5 fold diluted with water) and the resulting mixture was incubated at 22° C. for 1 h to convert the ATP not consumed in the kinase reaction completely […]. Subsequently 2.5 μL of the “kinase detection reagent” (1.2 fold more concentrated than recommended by the producer) were added, the resulting mixture was incubated at 22° C. for 1 h and then the luminescence measured with a suitable measurement instrument (e.g. Viewlux™ from Perkin-Elmer). The amount of emitted light was taken as a measure for the amount of ADP generated and thereby for the activity of the CSNK1D.

SMILES: O=C(Nc1cc(-c2[nH]c3c(OC[C@H]4COCCO4)cc(F)nc3c2-c2ccccn2)ccn1)C(CC(F)F)c1ccc(F)cc1 (mixture of isomers) [Example 50, (2RS)—N-{4-[7-{[(2R)-1,4-dioxan-2-yl]methoxy}-5-fluoro-3-(pyridin-2-yl)-1H-pyrrolo[3,2-b]pyridin-2-yl]pyridin-2-yl}-4,4-difluoro-2-(4-fluorophenyl)butanamide]
- IC50 [1]: 9.34 nM
- IC50 (full-length human CSNK1D): 9.03 nM

SMILES: Cc1ccc2[nH]c(-c3ccnc(NC(=O)C(CC(F)F)c4ccc(F)cc4)c3)c(-c3ccccn3)c2n1 (racemic) [Example 4, 4,4-difluoro-2-(4-fluorophenyl)-N-{4-[5-methyl-3-(pyridin-2-yl)-1H-pyrrolo[3,2-b]pyridin-2-yl]pyridin-2-yl}butanamide]
- IC50 [1]: 158 nM
- IC50 (full-length human CSNK1D): 9.45 nM

SMILES: Cc1cnc2c(-c3ccccn3)c(-c3ccnc(NC(=O)C(CC(F)F)c4ccc(F)cc4)c3)[nH]c2c1 (racemic) [Example 7, 4,4-difluoro-2-(4-fluorophenyl)-N-{4-[6-methyl-3-(pyridin-2-yl)-1H-pyrrolo[3,2-b]pyridin-2-yl]pyridin-2-yl}butanamide]
- IC50 [1]: 8.12 nM
- IC50 (full-length human CSNK1D): 4.13 nM

SMILES: O=C(Nc1cc(-c2[nH]c3cccnc3c2-c2ccccn2)ccn1)C(CC(F)F)c1ccc(F)cc1 (racemic) [Example 10, 4,4-difluoro-2-(4-fluorophenyl)-N-{4-[3-(pyridin-2-yl)-1H-pyrrolo[3,2-b]pyridin-2-yl]pyridin-2-yl}butanamide]
- IC50 [1]: 9.88 nM
- IC50 (full-length human CSNK1D): 4.99 nM

SMILES: O=C(Nc1cc(-c2[nH]c3cncnc3c2-c2ccccn2)ccn1)C(CC(F)F)c1ccc(F)cc1 (racemic) [Example 13, 4,4-difluoro-2-(4-fluorophenyl)-N-{4-[7-(pyridin-2-yl)-5H-pyrrolo[3,2-d]pyrimidin-6-yl]pyridin-2-yl}butanamide]
- IC50 [1]: 240 nM
- IC50 (full-length human CSNK1D): 12.3 nM

SMILES: O=C(Nc1cc(-c2[nH]c3cc(F)cnc3c2-c2ccccn2)ccn1)C(CC(F)F)c1ccc(F)cc1 (racemic) [Example 16, 4,4-difluoro-2-(4-fluorophenyl)-N-{4-[6-fluoro-3-(pyridin-2-yl)-1H-pyrrolo[3,2-b]pyridin-2-yl]pyridin-2-yl}butanamide]
- IC50 [1]: 21.9 nM
- IC50 (full-length human CSNK1D): 4.57 nM

SMILES: O=C(Nc1cc(-c2[nH]c3cc(F)cnc3c2-c2ccccc2)ccn1)C(CC(F)F)c1ccc(F)cc1 (racemic) [Example 19, 4,4-difluoro-2-(4-fluorophenyl)-N-[4-(6-fluoro-3-phenyl-1H-pyrrolo[3,2-b]pyridin-2-yl)pyridin-2-yl]butanamide]
- IC50 [1]: 602 nM
- IC50 (full-length human CSNK1D): 6.92 nM

SMILES: O=C(Nc1cc(-c2[nH]c3cccnc3c2-c2ccccc2)ccn1)C(CC(F)F)c1ccc(F)cc1 (racemic) [Example 22, 4,4-difluoro-2-(4-fluorophenyl)-N-[4-(3-phenyl-1H-pyrrolo[3,2-b]pyridin-2-yl)pyridin-2-yl]butanamide]
- IC50 [1]: 90.4 nM
- IC50 (full-length human CSNK1D): 3.18 nM

SMILES: O=C(Nc1cc(-c2[nH]c3cccnc3c2-c2cccc(F)n2)ccn1)C(CC(F)F)c1ccc(F)cc1 (racemic) [Example 25, 4,4-difluoro-2-(4-fluorophenyl)-N-{4-[3-(6-fluoropyridin-2-yl)-1H-pyrrolo[3,2-b]pyridin-2-yl]pyridin-2-yl}butanamide]
- IC50 [1]: 18.6 nM
- IC50 (full-length human CSNK1D): 7.87 nM

SMILES: O=C(Nc1cc(-c2[nH]c3c(OCC(F)F)cc(F)nc3c2-c2ccccn2)ccn1)C(CC(F)F)c1ccc(F)cc1 (racemic) [Example 28, (2RS)—N-{4-[7-(2,2-difluoroethoxy)-5-fluoro-3-(pyridin-2-yl)-1H-pyrrolo[3,2-b]pyridin-2-yl]pyridin-2-yl}-4,4-difluoro-2-(4-fluorophenyl)butanamide]
- IC50 [1]: 3.95 nM
- IC50 (full-length human CSNK1D): 4 nM

SMILES: O=C(Nc1cc(-c2[nH]c3nccnc3c2-c2ccccn2)ccn1)C(CC(F)F)c1ccc(F)cc1 (racemic) [Example 31, (2RS)-4,4-difluoro-2-(4-fluorophenyl)-N-{4-[7-(pyridin-2-yl)-5H-pyrrolo[2,3-b]pyrazin-6-yl]pyridin-2-yl}butanamide]
- IC50 [1]: 3.04 nM
- IC50 (full-length human CSNK1D): 7.81 nM

SMILES: Cc1cc2[nH]c(-c3ccnc(NC(=O)C(CC(F)F)c4ccc(F)cc4)c3)c(-c3ccccn3)c2nc1F (racemic) [Example 33, (rac)-4,4-difluoro-N-{4-[5-fluoro-6-methyl-3-(pyridin-2-yl)-1H-pyrrolo[3,2-b]pyridin-2-yl]pyridin-2-yl}-2-(4-fluorophenyl)butanamide]
- IC50 [1]: 19.5 nM
- IC50 (full-length human CSNK1D): 37.3 nM

SMILES: Cc1cc(F)nc2c(-c3ccccn3)c(-c3ccnc(NC(=O)C(CC(F)F)c4ccc(F)cc4)c3)[nH]c12 (racemic) [Example 36, (rac)-4,4-difluoro-N-{4-[5-fluoro-7-methyl-3-(pyridin-2-yl)-1H-pyrrolo[3,2-b]pyridin-2-yl]pyridin-2-yl}-2-(4-fluorophenyl)butanamide]
- IC50 [1]: 21.4 nM
- IC50 (full-length human CSNK1D): 41.9 nM

SMILES: COc1cc(F)nc2c(-c3ccccn3)c(-c3ccnc(NC(=O)C(CC(F)F)c4ccc(F)cc4)c3)[nH]c12 (racemic) [Example 39, (rac)-4,4-difluoro-N-{4-[5-fluoro-7-methoxy-3-(pyridin-2-yl)-1H-pyrrolo[3,2-b]pyridin-2-yl]pyridin-2-yl}-2-(4-fluorophenyl)butanamide]
- IC50 [1]: 19 nM
- IC50 (full-length human CSNK1D): 40.2 nM

SMILES: O=C(Nc1cc(-c2[nH]c3c(OC4CC4)cc(F)nc3c2-c2ccccn2)ccn1)C(CC(F)F)c1ccc(F)cc1 (racemic) [Example 42, (rac)-N-{4-[7-(cyclopropyloxy)-5-fluoro-3-(pyridin-2-yl)-1H-pyrrolo[3,2-b]pyridin-2-yl]pyridin-2-yl}-4,4-difluoro-2-(4-fluorophenyl)butanamide]
- IC50 [1]: 8.22 nM
- IC50 (full-length human CSNK1D): 14.4 nM

SMILES: O=C(Nc1cc(-c2[nH]c3c(CC4CC4)cc(F)nc3c2-c2ccccn2)ccn1)C(CC(F)F)c1ccc(F)cc1 (racemic) [Example 46, (2RS)—N-{4-[7-(cyclopropylmethyl)-5-fluoro-3-(pyridin-2-yl)-1H-pyrrolo[3,2-b]pyridin-2-yl]pyridin-2-yl}-4,4-difluoro-2-(4-fluorophenyl)butanamide]
- IC50 [1]: 23.2 nM
- IC50 (full-length human CSNK1D): 19.2 nM
